Patent US12261337B2, “Aqueous electrolyte, redox flow battery and use thereof” (priority 2018, dated 2025)

Legend:
[1] = cited from earlier work
[2] = oxidized using Oxone; storage at 60° C., also in the absence of air; after three days

## C1=C[CH]([Fe][CH]2C=CC=C2)C=C1 [Ferrocene, bis(η^5-cyclopentadienyl)iron(II)]
[1]; organic solvents
  solubility in organic solvents: readily soluble
[1]; water
  solubility in water: sparingly soluble

## ferrocene-bis-sulfonic acid [Example 1]
[2]
  stability of the charged molecule / charged electrolytes after storage: irreversible precipitate
